From US12723055B2, “Phosphoantigen prodrug compounds” (priority 2018, dated 2026)

Assays:
[1] = test system: T24 urinary bladder carcinoma cell lines; test: Cytotoxicity assay: specific lysis of T24 bladder cancer cells by Vγ9/Vδ2 T-cells; format: cell-based, human; conditions: T24 cells incubated 4 hours with 100 pM ProPAgen 4d; effector target ratio 10:1, 18 hours; compared with 10 μM zoledronate and HMBPP
Description: FIG. 13. Cytotoxocity Assay showing potent lysis of bladder cancer cells following incubation with the HMBP phosphonate ProPAgen 4d. ProPAgen 4d mediates the specific lysis of T24 bladder cancer cells by Vγ9/Vδ2 T-cells.
Vγ9Vδ2 T cells were expanded from PBMCs in the presence of 5 μM zoledronate for 14 days and 100 U/ml IL-2 (Peprotech) was added into the media every 2-3 days, yielding ~85% Vγ9Vδ2 T cells. […] All cells were then labelled with eFluor780 viability dye and CFSE^+ eFluor780 viability dye^+ cells were measured using flow cytometry. Data were analysed using FlowJo V10.

human Vγ9/Vδ2+ T cells = test: Activation of human Vγ9/Vδ2+ T cells in PBMC (CD69 and CD25 upregulation, flow cytometry); format: cell-based; conditions: for Vγ9/Vδ2 T-cell activation potency (in words): human PBMC from healthy donors, 18-20 h, CD69/CD25, compared with HMBP phosphate ProPAgens or HMBPP; for EC50: human PBMC, 18 hr incubation, CD69 and CD25 upregulation
Description: FIG. 7. Activation of human Vγ9/Vδ2^+ T cells by HMBP phosphonate ProPAgens 4d and 9d. Human peripheral blood mononuclear cells (PBMC) were incubated with the indicated concentrations of ProPAgens 4d (left) and 9d (right) for 18 hr. TCR Vγ9/Vδ2^+ T cells were then assessed for the upregulation of cell surface markers, CD69 and CD25, as a readout to the activation of Vγ9/Vδ2^+ T cells. EC50 for both ProPAgens is ca. 8 pM (picomolar).
FIG. 8. FACS data showing the activation of human Vγ9/Vδ2^+ T cells by the HMBP phosphonate ProPAgen 4d in a dose-dependent manner. Human peripheral blood mononuclear cells (PBMC) were incubated with the indicated concentrations of ProPAgens 4d for 18 h (FIG. 8A) or 20 h (FIGS. 8B and 8C). For 20 h incubations, data was collected and analysed individually from two separate donors: Donor (1) results shown in FIG. 8B, Donor (2) results shown in FIG. 8C. TCR Vγ9/Vδ2^+ T cells were then assessed for the upregulation of cell surface markers, CD69 and CD25, as a readout to the activation of Vγ9/Vδ2^+ T cells.
FIG. 9. FACS data showing the activation of human Vγ9/Vδ2^+ T cells by the HMBP phosphonate ProPAgen 9d in a dose-dependent manner. Human peripheral blood mononuclear cells (PBMC) were incubated with the indicated concentrations of ProPAgens 9d for 18 h (FIG. 9A) or 20 h (FIGS. 9B and 9C). For 20 h incubations, data was collected and analysed individually from two separate donors: Donor (1) results shown in FIG. 9B, Donor (2) results shown in FIG. 9C. TCR Vγ9/Vδ2^+ T cells were then assessed for the upregulation of cell surface markers, CD69 and CD25, as a readout to the activation of Vγ9/Vδ2^+ T cells.
FIG. 10. […] Data was collected and analysed individually from two separate donors: Donor (1) results shown in FIG. 10A, Donor (2) results shown in FIG. 10B. TCR Vγ9/Vδ2^+ T cells were then assessed for the upregulation of cell surface markers, CD69 and CD25, as a readout to the activation of Vγ9/Vδ2^+ T cells.
Peripheral blood γδ T-cells lack appreciable levels of surface CD69 or CD25 under steady state conditions, but upon T-cell receptor (TCR) stimulation upregulate both T-cell activation markers within 72 hours. PAg responsive Vγ9/Vδ2 T-cells were then distinguished by TCR Vγ9 and Vδ2 expression and assessed for the upregulation CD69 and CD25. […]
Untreated and treated PBMCs were labelled with Zombie aqua viability dye (Biolegend) and subsequently were stained with a mixture of BV421-conjugated anti-CD3 (UCHT1, Biolegend), BV650-conjugated anti-CD8 (SK1; BD Bioscience), FITC-conjugated anti-CD25 (M-A25, Biolegend), PE-conjugated anti-CD69 (TP1.55.3; Beckman Coulter) and PE Cy5-conjugated anti-Vγ9 TCR (IMMU360, Beckman Coulter) and APC-conjugated anti-Vδ2 TCR (123R3, Miltenyi Biotech) antibodies. […] Data were analysed using FlowJo V10 software.

human CD8+ T cells = test: Activation of human CD8+ T cells in PBMC (CD69 and CD25 upregulation, flow cytometry); format: cell-based; conditions: for Concentration without CD8+ T cell activation relative to Vγ9/Vδ2 T-cell activation EC50: 1 μM versus calculated EC50; for Activation of CD8+ T cells: human PBMC, 20 h, up to 1 μM, CD69/CD25
Description: (§1) FIG. 11. FACS data showing a lack of activation of human CD8+ T cells by the HMBP phosphonate ProPAgen 4d. Human PBMCs were incubated with the indicated concentrations of ProPAgen 4d for 20 h. TCR CD8^+ T cells were then assessed for the upregulation of cell surface markers, CD69 and CD25, as a readout of the activation of CD8^+ T cells. Data was collected and analysed individually from two separate donors: Donor (1) results shown in FIG. 11A, Donor (2) results shown in FIG. 11B.
as §1, with “12.” for “11.”, “9d.” for “4d.”, “9d” for “4d”, “12A,” for “11A,”, “12B.” for “11B.”
Like peripheral blood γδ T-cells, peripheral blood CD8+ T-cells lack appreciable levels of surface CD69 or CD25 under steady state conditions, but upon T-cell receptor (TCR) stimulation upregulate both T-cell activation markers within 72 hours. PAg responsive CD8 T-cells were then distinguished by TCR CD8 expression and assessed for the upregulation CD69 and CD25.
Blood was obtained in the presence of a mixture of Heparin and Ethylenediaminetetraacetic acid (EDTA) as anticoagulants (2 U/ml heparin, 1.5 mM EDTA) from consented healthy donors (approved by the NRES Committee West Midlands ethical board; REC reference 14/WM/1254). Blood was then layered on a density gradient medium, lymphoprep (Stem Cell Technologies) and Peripheral blood mononuclear cells (PBMCs) were purified by gradient centrifugation. The cells were washed 2 times with Phosphate Buffered Saline (PBS), then resuspended in RPMI-1640 media supplemented with 2 mM L-glutamine, 25 mM HEPES, 1% sodium pyruvate, 50 μg/ml penicillin/streptomycin (Invitrogen) and 10% foetal calf serum.
Untreated and treated PBMCs were labelled with Zombie aqua viability dye (Biolegend) and subsequently were stained with a mixture of BV421-conjugated anti-CD3 (UCHT1, Biolegend), BV650-conjugated anti-CD8 (SK1; BD Bioscience), FITC-conjugated anti-CD25 (M-A25, Biolegend), PE-conjugated anti-CD69 (TP1.55.3; Beckman Coulter) and PE Cy5-conjugated anti-Vγ9 TCR (IMMU360, Beckman Coulter) and APC-conjugated anti-Vδ2 TCR (123R3, Miltenyi Biotech) antibodies. The percentages of CD69^+CD25^+ within CD8^+ T cell subset or Vγ9Vδ2 T-cell population were measured using flow cytometer. Data were analysed using FlowJo V10 software.

[2] = Stability in human serum at 37° C. monitored by 31P NMR; format: in vitro ADME; conditions: 12 h
Description: FIG. 5: Stability of HMBP phosphonate ProPAgen 4d in human serum at 37° C. for 12 hours as monitored by ^31P NMR. Prodrug 4d (5.0 mg) was dissolved in DMSO-d6 (0.10 mL) and D2O (0.15 mL). All ^31P NMR spectra were recorded at 37° C. Initially, a ^31P NMR scan of prodrug 4d (5.0 mg) in DMSO-d6 (0.10 mL) and D2O (0.15 mL) was recorded (shown as compound 4d alone in the figure). Following this, a previously defrosted human serum (0.30 mL) was added to the NMR tube and a spectrum immediately run. Spectra were recorded at 30 min after the addition and then at even time intervals over 12 hr.
FIG. 6: Stability of HMBP phosphonate ProPAgen 9a in human serum at 37° C. for 12 hours as monitored by ^31P NMR. Same as for compound 4d above. […] In fact, these are eight peaks as predicted and two extra peaks are seen when zoomed into these peaks to make the predicted eight phosphorous peaks of such compounds.
ProPAgen 4d with human serum at 37° C. for 12 h and monitored the sample by ^31P-NMR as reported previously^11.

Row | Structure (SMILES) | T24 bladder cancer lysis by Vγ9/Vδ2 T-cells [1] | Vγ9/Vδ2 T-cell activation potency (in words) (human Vγ9/Vδ2+ T cells) | EC50 (human Vγ9/Vδ2+ T cells) [pM] | Concentration without CD8+ T cell activation relative to Vγ9/Vδ2 T-cell activation EC50 (human CD8+ T cells) | Activation of CD8+ T cells (human CD8+ T cells) | Stability in human serum [2]
1 | C/C(=C\CCP(=O)(N[C@@H](C)C(=O)OCc1ccccc1)Oc1ccccc1)CO (stereo partly shown) [ProPAgen 4d] | significant enhancement | potent Vγ9/Vδ2 T-cells activation | ~8 | approx. 100,000 times | did not exhibit activation | no degradation observed
2 | C/C(=C\CC(F)(F)P(=O)(N[C@@H](C)C(=O)OCc1ccccc1)Oc1ccccc1)CO (stereo partly shown) [ProPAgen 9d] |  | potent Vγ9/Vδ2 T-cells activation | ~8 | approx. 100,000 times | did not exhibit activation | 
